Read-outs that look alike come from different tables or passages of the source.
What was measured:
[1] = system: delayed-type hypersensitivity (DTH) reaction; experiment: Oxazolone-induced DTH skin reaction, mouse ear-swelling test; format: in vivo, BALB/c mice; conditions: for reduction of inflammation in the DTH model: 0.5, 1, 2 and 4 mg in 40 μl 30 min after challenge, dexamethazone 2 mg/40 μl, FIG. 5; for percent inhibition of DTH reaction: read after 24 hours
Procedure: Delayed-type hypersensitivity (DTH), a localized inflammatory reaction induced by cytokines secreted by certain TH cells when they encounter certain types of antigens, is an established experimental model for skin inflammation.
As a first step, DTH reactions were induced in the skin of 8-week-old female BALB/c mice. The mice were sensitized by topical application of 200 μl of a 2% oxazolone (4-ethoxymethylene-2-phenyl-2-oxazolin-5-one; Sigma, St. Louis, Mo.) solution in acetone/olive oil (4:1, vol/vol) to the shaved abdomen of the mice. Six days after sensitization, one ear of each mouse was challenged by topical application of 20 μl of a 0.5% oxazolone solution.
Mice were induced with DTH as in Example 17. […] In addition, a positive control of dexamethazone (2 mg/40 μl) was administered. A group of DTH induced mice was also treated with (4-Methyl-piperazin-1-yl)-acetic acid ethyl ester HCl (negative control.)

[2] = system: Spleen Cells of GA Immumized Mice; experiment: IL-2 secretion from spleen cells of immunized mice (ELISA); format: cell-based, C57BL/J6 mice; design: IL-2 Secretion from 5 × 10^6 Spleen Cells: unit not given here
Procedure: (§1) EAE was tested in CSJL/F1 mice, immunological response was tested in C57BL/J6 mice. Healthy, specific pathogen-free, female CSJLF/1 and male C57BL/J6 mice, were obtained from Harlan Animal Breeding Center, Jerusalem, Israel. The mice were 9-week old at the initiation of the study, weighing 20 g±15%.
(i) The mice were divided into 6 test groups as shown below:
Mice were immunized 10 days prior to spleen collection.
A solution of GA in PBS (final GA concentration of 1.5 mg/mL, for dose of 75 μg/mouse) was diluted in CFA to yield a final concentration of 0.75 mg/mL for dose of 75 μg/mouse GA. The mixtures (GA+CFA) were transferred into a syringe (2.5 mL) connected to a second syringe through a Luer lock bridge and mixed well by transferring the material from one syringe to another for about 10 minutes until the material is well emulsified.
GA (20 mg vial) was dissolved in PBS to yield 20 mg/mL solution, then further diluted in PBS to yield a final GA concentration of 1.5 mg/mL for dose of 75 μg/mouse. Equal volumes of Compound 3 and GA or PBS for control group were mixed.
Spleens were collected and pooled for each group in sterile RPMI medium. Cells were extracted resuspended in enriched DCCM1 medium and counted. […] Supernatants were collected and tested for levels of cytokines secretion.
(vii) Detection of cytokine secretion in primary cultures from spleens was performed employing ELISA. Cells were activated in-vitro and IL-2 secretion levels were detected using commercial kits according to the provider's instructions.

EAE [3] = conditions: Lewis rats
Procedure: EAE is induced in 7-9 weeks old female Lewis rats by injecting each foot pad with 25 μg of guinea MBP (50 μg total) in CFA (Sigma). The disease develops about 12 days after immunization and is characterized by paralysis of various degrees due to inflammation of the central nervous system. The rats are scored for paralysis on a scale of 0-4, as described above in Example 13.
EAE was induced in 8-week-old female Lewis rats as described in Example 15 above with guinea pig MBP in CFA.
(§2) The rats were scored for EAE on a severity scale of 0-4 as described above.
as §2
Rats were treated with Compound 9 (100 mg/Kg) per os. The rats were scored for EAE on a severity scale of 0-4 as described above.

adjuvant arthritis (AA) = conditions: Lewis rats
[4] = system: experimental autoimmune encephalomyelitis (EAE); conditions: DA rats; 40 mg IV on day of immunization; vs untreated control; FIG. 2
EAE [5] = format: in vivo; conditions: CSJL/F1 mice, GA 5.0 mg/mouse, Compound 3 0.5 mg/mouse
Procedure: as §1
(i) The mice were divided into 4 test groups as shown below:
For immunization of group 1, a GA solution in PBS (100 mg/mL) was diluted 1:2 in IFA to yield a final concentration of 50 mg/mL for injection of 5.0 mg/mouse GA (0.1 ml). The GA+IFA mixtures were transferred into a syringe (2.5 mL) connected to a second syringe through a Luer lock bridge and mixed well by transferring the material from one syringe to another for about 10 minutes until the material was well emulsified.
EAE was induced by injecting the encephalitogenic agent consisting of MSCH and commercial CFA containing Mycobacterium tuberculosis H37Ra to the foot-pads of the animals and pertussis toxin IV.
They were weighed before immunization and once a week thereafter until the termination of the study. Ten days after induction of EAE, the mice were examined for EAE clinical signs and scored. The EAE clinical signs were observed and scored from the 9th day post-EAE induction until the termination of the experiment according to the following five-graded scale to assess clinical severity: 0, normal behavior; 1, weight loss; 2, tail weakness; 3, hind legs hypotonia and weakness; 4, hind legs paralysis; 4, severe total paralysis; 5, impaired respiration and/or convulsions and/or full paralysis or death.
Calculation of mortality: The number of sick and dead animals in each group was determined, and the incidence of disease and mortality rate was calculated as follows: […]
Calculation of percent activity: The percentage activity according to mortality was calculated as follows: […]
Calculation of mean duration of disease and onset of disease: The mean duration of the disease and onset of disease expressed in days was calculated.
Calculation of the mean maximal score and percent inhibition: The maximal scores of each of the 10 mice in the test group were summed.
The mean maximal score (MMS) of the group was calculated as follows: […]
The percent inhibition was calculated as follows: […]
Calculation of the mean group score and percent inhibition: The scores of each of the 10 mice in the test group was summed.
The mean group score (GMS) of the group was calculated as follows: […]

[6] = format: in vivo
Procedure: The mice were scored according to following chart: 0—normal behavior; 1—slight toxic signs (piloerection); 2—moderate toxic signs (partial eye lid closure, hunched posture, hypoactivity, apathy); 3—severe toxic signs (ataxia, convulsions, gasping respiration, paralysis, unconscious); 4—death. Mice were weighed before immunization and on the day of the termination of the study. […] The spleens were weighed and spleen/body weight ratio was calculated.

[7] = 0.2 mg per os every day from EAE induction
[8] = 1 mg per os every day from EAE induction
[9] = 2 mg per os every day from EAE induction
[10] = 10 mg per os every day from EAE induction
[11] = 20 mg per os every day from EAE induction

CCCCCCCC/C=C\CCCCCCCCOC(=O)C(N)c1ccccc1.Cl (stereo not drawn) [Compound 11, α-Amino-α-phenyl-acetic acid octadec-(Z)-9-enyl ester HCl salt]
reduction of inflammation in the DTH model [1]: inhibit DTH Skin Reaction

glatiramer acetate [GA, reference compound]
IL-2 Secretion from 5 × 10^6 Spleen Cells ([2]; GA activator conc. 2.5 (mg/mL), mice immunized with GA 75 μg/m, no Comp. 3): 47.9
IL-2 Secretion from 5 × 10^6 Spleen Cells ([2]; GA activator conc. 25.0 (mg/mL), mice immunized with GA 75 μg/m, no Comp. 3): 124.3
IL-2 Secretion from 5 × 10^6 Spleen Cells ([2]; activator Con A 2.5 (mg/mL), mice immunized with GA 75 μg/m, no Comp. 3): 419.6
IL-2 Secretion from 5 × 10^6 Spleen Cells ([2]; activator conc. 0, mice immunized with GA 75 μg/m, no Comp. 3): UQL

C[C@@H]1C[C@H]2[C@@H]3CCC4=CC(=O)C=C[C@]4(C)[C@@]3(F)[C@@H](O)C[C@]2(C)[C@@]1(O)C(=O)CO [dexamethazone, reference compound]
reduction of inflammation in the DTH model [1]: positive results in reducing inflammation

CCOC(=O)CN1CCN(C)CC1.Cl [negative control, (4-Methyl-piperazin-1-yl)-acetic acid ethyl ester HCl, reference compound]
reduction of inflammation in the DTH model [1]: did not show any positive results

CCCCCCCC/C=C\CCCCCCCCOC(=O)CN1CCNCC1.O=C(O)C(O)C(O)C(=O)O [Compound 9, Piperazin-1-yl-acetic acid octadec-(Z)-9-enyl ester bitartrate]
reduction of inflammation in the DTH model [1]: inhibit DTH Skin Reaction
protection against EAE (EAE [3]; 100 mg/Kg administered orally, FIG. 9): could protect the rats against EAE
% Sick rats (EAE [3]; 100 Mg/Kg per os): 100%
% inhibition (EAE [3]; 100 Mg/Kg per os): 31.4%
Mean Clinic Score (EAE [3]; 100 Mg/Kg per os): 1.93 ± 0.45
Mean onset (EAE [3]; 100 Mg/Kg per os): 11.5

CCCCCCCC/C=C\CCCCCCCCOC(=O)CN(C)C [Compound 1, N,N-Dimethylamino-acetic acid octadec-(Z)-9-enyl ester]
protection against the inflammation caused by AA (AA score 0-16) (adjuvant arthritis (AA); 40 mg IV on day 0 or on day 14 after onset of AA, FIG. 1): could protect the rats against the inflammation caused by AA
prevention of paralysis (EAE score 0-4) [4]: could prevent the paralysis to a significant degree

CCCCCCCC/C=C\CCCCCCCCOC(=O)c1ccc(CN(C)C)cc1.Cl [Compound 5, 4-dimethylaminomethyl-benzoic acid octadec-(Z)-9-enyl ester HCl]
reduction of inflammation in the DTH model [1]: inhibit DTH Skin Reaction

CCCCCCCC/C=C\CCCCCCCCOC(=O)CN1CCN(C)CC1.O=C(O)C(O)C(O)C(=O)O [Compound 3, (4-Methyl-piperazin-1-yl)-acetic acid octadec-(Z)-9-enyl ester tartrate]
percent inhibition of DTH reaction ([1]; 1 mg topical on challenged ear 30 min after challenge): 12.5%
percent inhibition of DTH reaction ([1]; 2 mg topical on challenged ear 30 min after challenge): 8%
% inhibition (EAE [3]; [7]): 28%
Mean Clinic Score (EAE [3]; [7]): 2.1
% inhibition (EAE [3]; [8]): 28%
Mean Clinic Score (EAE [3]; [8]): 2.1
% inhibition (EAE [3]; [9]): 14%
Mean Clinic Score (EAE [3]; [9]): 2.5
% inhibition (EAE [3]; [10]): 28%
Mean Clinic Score (EAE [3]; [10]): 2.1
% inhibition (EAE [3]; [11]): 41%
Mean Clinic Score (EAE [3]; [11]): 1.7
protection against EAE (EAE [3]; administered subcutaneously (10-200 mg, day 7 before induction) or orally): could protect the rats against EAE
effect on EAE (EAE [3]; per os every other day from day of EAE induction (not shown)): similarly effective
GMS (group mean score) Value ± S.D. (EAE [5]): 3.3 ± 0.6
MMS (mean maximal score) Value ± S.D. (EAE [5]): 4.7 ± 0.5
Mean Duration (EAE [5]): 4.7 ± 0.5 days
Mean onset (EAE [5]; SC immunization 11 days before EAE induction): 10.3 ± 0.5 days
GMS inhibition (inh.* 3) (EAE [5]; vs PBS control): 3.2%
MMS inhibition (inh.* 2) (EAE [5]; vs PBS control): .0%
effect on non-specific Con-A activation (IL-2) ([2]; Con A as non-specific activator): no effect
IL-2 Secretion from 5 × 10^6 Spleen Cells ([2]; GA activator conc. 2.5 (mg/mL), Comp. 3 50 μg/m (GA 75 μg/m where combined)): UQL
IL-2 Secretion from 5 × 10^6 Spleen Cells ([2]; GA activator conc. 2.5 (mg/mL), Comp. 3 500 μg/m (GA 75 μg/m where combined)): UQL
IL-2 Secretion from 5 × 10^6 Spleen Cells ([2]; GA activator conc. 25.0 (mg/mL), Comp. 3 50 μg/m (GA 75 μg/m where combined)): UQL
IL-2 Secretion from 5 × 10^6 Spleen Cells ([2]; GA activator conc. 25.0 (mg/mL), Comp. 3 500 μg/m (GA 75 μg/m where combined)): 7.9
IL-2 Secretion from 5 × 10^6 Spleen Cells ([2]; activator Con A 2.5 (mg/mL), Comp. 3 50 μg/m (GA 75 μg/m where combined)): 426.8
IL-2 Secretion from 5 × 10^6 Spleen Cells ([2]; activator Con A 2.5 (mg/mL), Comp. 3 500 μg/m (GA 75 μg/m where combined)): 426.8
IL-2 Secretion from 5 × 10^6 Spleen Cells ([2]; activator conc. 0, Comp. 3 50 μg/m (GA 75 μg/m where combined)): UQL
IL-2 Secretion from 5 × 10^6 Spleen Cells ([2]; activator conc. 0, Comp. 3 500 μg/m (GA 75 μg/m where combined)): UQL
IL-2 secretion from spleen cells in response to GA ([2]; immunized with Compound 3 without GA, 50 and 500 μg/mouse): not elevated
effect on mice weight ([6]; Compound 3 50 and 500 μg/mouse, with or without GA 75 μg/mouse): no adverse effect
signs of immunosuppression ([6]; Compound 3 with or without GA): no signs of immunosuppression
protection against AA (adjuvant arthritis (AA); 10, 50, 100 or 200 mg SC at day -7 before induction, FIG. 6): could protect the rats against AA
